From publication PMC2929395 (Chemistry & biology, 2010)
Counter-ions that a name gives are not always drawn.

Assays:
[1] = target: T1, PanK3 (Homo sapiens, UniProt Q9H999); test: PanK3 radiochemical; format: biochemical; details: for PanK3 inhibition by steroids: radiochemical assay, 100 µM compound; for % Activation RA: % of maximal activation of PanK3 with respect to the DMSO control; for % Activation RA / PanK3 inhibition (in words): radioactive assay; for Km: read-out: KM for PanK3, wild-type PanK3, substrate; for PanK3 inhibition (in words): increasing concentrations of compound; for EC50 (µM), RA: radiochemical PanK3 assay
T1 sequence (Q9H999 whole entry): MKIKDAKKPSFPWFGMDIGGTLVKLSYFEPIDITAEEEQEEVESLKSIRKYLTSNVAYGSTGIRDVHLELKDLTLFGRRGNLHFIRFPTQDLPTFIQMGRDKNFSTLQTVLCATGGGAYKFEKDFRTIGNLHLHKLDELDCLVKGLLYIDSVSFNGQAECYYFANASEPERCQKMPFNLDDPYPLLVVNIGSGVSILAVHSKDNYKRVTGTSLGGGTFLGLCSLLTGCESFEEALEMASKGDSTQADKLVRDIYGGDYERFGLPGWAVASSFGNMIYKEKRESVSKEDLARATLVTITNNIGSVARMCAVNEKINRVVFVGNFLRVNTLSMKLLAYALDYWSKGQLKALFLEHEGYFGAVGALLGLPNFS

[2] = system: HepG2/C3A cells; test: CoA biosynthesis, [3H]pantothenate incorporation into CoA in HepG2/C3A cells; format: cell-based, human; details: 24 h labeling, relative to DMSO control
[3] = target: T2, PanK3(S195V) (Homo sapiens, UniProt Q9H999, S195V); test: PanK3; format: biochemical; details: for Km: read-out: KM for PanK3(S195V), substrate
T2 sequence (Q9H999 1-370 S195V): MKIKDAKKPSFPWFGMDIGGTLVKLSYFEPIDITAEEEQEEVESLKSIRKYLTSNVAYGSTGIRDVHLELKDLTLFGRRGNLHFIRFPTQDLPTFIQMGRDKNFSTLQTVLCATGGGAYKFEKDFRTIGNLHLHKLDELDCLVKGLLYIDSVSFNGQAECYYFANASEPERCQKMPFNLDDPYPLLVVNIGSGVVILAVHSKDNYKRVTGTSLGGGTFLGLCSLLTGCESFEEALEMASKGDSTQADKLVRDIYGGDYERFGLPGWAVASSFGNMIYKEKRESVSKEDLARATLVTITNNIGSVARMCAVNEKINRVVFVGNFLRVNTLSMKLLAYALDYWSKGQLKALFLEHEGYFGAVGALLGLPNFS

[4] = target: T1, PanK3; test: PanK3 high-throughput screen, two-step luminescence; format: biochemical
[5] = HTS platform, 10-point concentration series in triplicate, rounded to nearest 0.1 µM

How did the “PanK3 inhibition by steroids” value [1] turn out when `C[C@]12CC[C@@H]3c4ccc(OS(=O)(=O)O)cc4CC[C@H]3[C@@H]1CC[C@@H]2O` [estradiol sulfate] was run?
Its value is “no effect”.

Which results are given for `CCCCCCCC/C=C\CCCCCCCC(=O)O[C@H](CC(=O)[O-])C[N+](C)(C)C` [Oleoyl-carnitine]?
% Activation RA [1]: 140%; Reversal of / competition with acetyl-CoA inhibition of PanK3 ([1]; in the presence of acetyl-CoA, data not shown): Competition between acetyl-CoA and oleoyl-carnitine was also observed; Effect on CoA biosynthesis (pantothenate incorporation into CoA) [2]: activators of CoA biosynthesis

`CC(C)(CO)[C@@H](O)C(=O)NCCC(=O)NCCS` [pantetheine] was tested. Which Km [1] did it give?
Its Km is 23 ± 2 µM.

And the Km [3]?
The Km was 59 ± 3 µM.

Which IC50 [4] does the source give for `O=C1C(Cl)=C(Cl)C(=O)C(Cl)=C1Cl` [Chloranil] here?
Its IC50 is 5.9 µM.

Which IC50 [1] does the source give for `Cc1cnc(C(=O)NCCc2ccc(S(=O)(=O)NC(=O)NC3CCCCC3)cc2)cn1` [Glipizide] here?
The IC50 was 8.5 µM.

What about the IC50 [4] of the same compound?
Its IC50 is 5.2 µM.

With `CCc1ccc(CCOc2ccc(CC3SC(=O)NC3=O)cc2)nc1` (stereo not drawn) [Pioglitazone hydrochloride] as the compound, how does the IC50 [4] read?
The IC50 was 1 µM.

For `Oc1c(Cl)cc(Cl)c(Cl)c1Cc1c(O)c(Cl)cc(Cl)c1Cl` [Hexachlorophene], which IC50 [4] is on record?
Its IC50 is 8.8 µM.

Which “PanK3 inhibition (in words)” value [1] does the source give for `O=C(Nc1ccccc1)c1cc([N+](=O)[O-])ccc1Cl` [GW9662] here?
The value was “either had no effect or very weak activity”.

`CCCCCCCCCCCCCCCC(=O)OC(CC(=O)[O-])C[N+](C)(C)C` (stereo not drawn) [Palmitoyl-carnitine] was tested. Which EC50 [1] did it give?
Its EC50 is 1600 nM.

What about the “% Activation RA” value [1] of the same compound?
The value was 120%.

How did the IC50 [4, 5] turn out when Tyrphostin AG 808 was run?
Its IC50 is 9 µM.

How did the IC50 [4] turn out when `Cc1c(Cl)cccc1Nc1ccccc1C(=O)O` [Tolfenamic acid] was run?
Its IC50 is 9.2 µM.

Which IC50 [1] does the source give for `CC(C)[C@H]1CC[C@H](C(=O)N[C@H](Cc2ccccc2)C(=O)O)CC1` [nateglinide] here?
The IC50 was greater than 100 µM.

How did the “Kinetic mechanism of PanK3 inhibition with respect to ATP” value [1] turn out when `Nc1ncnc2c1ncn2[C@@H]1O[C@H](COP(=O)(O)OP(=O)(O)O)[C@@H](O)[C@H]1O` [ADP] was run?
Its value is “competitive inhibitor”.

`N=C(N)SCCc1ccc(CCSC(=N)N)cc1` [1,4-PBIT dihydrobromide] was tested. Which IC50 [4, 5] did it give?
The IC50 was 0.4 µM.

With `NS(=O)(=O)c1cc(C(=O)O)c(NCc2ccco2)cc1Cl` [furosemide] as the compound, how does the “Activator hit in primary HTS” value ([4]; screened at 12 µM, cut-off >25% activation) read?
The value was “did not make the cutoff for an activator of PanK3”.

`CC(=O)[C@H]1CC[C@H]2[C@@H]3CC=C4C[C@@H](O)CC[C@]4(C)[C@H]3CC[C@]12C` [Pregnenolone] was tested. Which “PanK3 inhibition by steroids” value [1] did it give?
The value was “weak PanK3 inhibitors”.

With `CC(=O)SCCNC(=O)CCNC(=O)[C@H](O)C(C)(C)COP(=O)(O)OP(=O)(O)OC[C@H]1O[C@@H](n2cnc3c(N)ncnc32)[C@H](O)[C@@H]1OP(=O)(O)O` [acetyl-CoA] as the compound, how does the “Inhibition of PanK3(S195V)” value ([3]; radioactive assay, 800 ng PanK3(S195V)) read?
Its value is “refractory to inhibition”.

How did the “PanK3 inhibition by steroids” value [1] turn out when `C[C@]12CC[C@H](O)CC1=CC[C@@H]1[C@@H]2CC[C@]2(C)C(=O)CC[C@@H]12` [Dehydroisoandrosterone] was run?
The value was “decreased the enzyme activity”.

How did the “PanK3 inhibition by steroids” value [1] turn out when `C[C@]12CC[C@@H]3c4ccc(OS(=O)(=O)O)cc4CC[C@H]3[C@@H]1CCC2=O` [estrone sulfate] was run?
Its value is “inhibited the enzyme more potently than their non-sulfated versions”.

Which “Effect on CoA biosynthesis (pantothenate incorporation into CoA)” value [2] does the source give for `CN(CCOc1ccc(CC2SC(=O)NC2=O)cc1)c1ccccn1` (stereo not drawn) [Rosiglitazone] here?
Its value is “inhibited pantothenate incorporation into CoA”.

Which “PanK3 inhibition by steroids” value [1] does the source give for `CC(C)CCC[C@@H](C)[C@H]1CC[C@H]2[C@@H]3CC=C4C[C@@H](O)CC[C@]4(C)[C@H]3CC[C@]12C` [cholesterol] here?
The value was “weak PanK3 inhibitors”.

How did the “PanK3 inhibition by steroids” value [1] turn out when `C[C@]12CC[C@H](OS(=O)(=O)O)CC1=CC[C@@H]1[C@@H]2CC[C@]2(C)C(=O)CC[C@@H]12` [Dehydroisoandrosterone sulfate] was run?
The value was “inhibited the enzyme more potently than their non-sulfated versions”.

Which results are given for `O=C1C=CC(=O)c2ccccc21` [1,4-naphtoquinone]?
% Activation RA [1]: 0%; EC50 (µM), RA [1]: Inactive

`N#C/C(=C\c1ccc(O)c(O)c1)C(=O)N1CCc2ccccc21` [Tyrphostin AG 528] was tested. Which IC50 [4, 5] did it give?
Its IC50 is 3 µM.

`CN(CCOc1ccc(C[C@H](Nc2ccccc2C(=O)c2ccccc2)C(=O)O)cc1)c1ccccn1` [GW1929] was tested. Which “PanK3 inhibition (in words)” value [1] did it give?
Its value is “either had no effect or very weak activity”.

For `CC(=O)O[C@H]1C[C@@]2(C)[C@@H](C[C@@H](O)[C@H]3[C@@]4(C)CC[C@@H](O)[C@@H](C)[C@@H]4CC[C@@]32C)/C1=C(\CCC=C(C)C)C(=O)O` [Fusidic acid], which IC50 [4] is on record?
Its IC50 is 0.1 µM.

Phenylmercuric acid was tested. Which “% Activation RA” value [1] did it give?
The value was 0%.

What about the “EC50 (µM), RA” value [1] of the same compound?
The value was “Inactive”.

Which IC50 [1] does the source give for `Cc1cc(SCc2sc(-c3ccc(C(F)(F)F)cc3)nc2C)ccc1OCC(=O)O` [GW501516] here?
Its IC50 is roughly 100 µM.

How did the IC50 [4, 5] turn out when `O=C1Nc2ccc(I)cc2/C1=C/c1cc(Br)c(O)c(Br)c1` [GW5074] was run?
Its IC50 is 9.2 µM.

Which IC50 [4, 5] does the source give for `O=C(c1cc(O)c(O)c([N+](=O)[O-])c1)c1ccccc1F` [Ro 41-0960] here?
Its IC50 is 3.9 µM.

With Psi-Rhodomyrtoxin as the compound, how does the IC50 [4, 5] read?
The IC50 was 1.6 µM.

What does the source list for `Nc1ncnc2c1ncn2[C@@H]1O[C@H](COP(=O)(O)OP(=O)(O)OP(=O)(O)O)[C@@H](O)[C@H]1O` [ATP]?
Km [1]: 311 ± 53 µM; Km [3]: 191 ± 27 µM

For `CCCCNC(=O)NS(=O)(=O)c1ccc(C)cc1` [Tolbutamide], which “PanK3 inhibition (in words)” value [1] is on record?
The value was “ineffective”.

For `C#C[C@]1(O)CC[C@H]2[C@@H]3CCC4=Cc5nc6nc7ccccc7n6cc5C[C@]4(C)[C@H]3CC[C@@]21C` [WIN 62577], which IC50 [4, 5] is on record?
Its IC50 is 0.7 µM.

How did the IC50 [4] turn out when `CC1(C)[C@@H](O)CC[C@]2(C)[C@H]3C(=O)C=C4[C@H]5C[C@@](C)(C(=O)O)CC[C@]5(C)CC[C@@]4(C)[C@]3(C)CC[C@@H]12` [18α-glycyrrhetinic acid] was run?
Its IC50 is 3.6 µM.

Which IC50 [1] does the source give for `CCOc1cc(CC(=O)N[C@@H](CC(C)C)c2ccccc2N2CCCCC2)ccc1C(=O)O` [repaglinade] here?
Its IC50 is greater than 100 µM.

What does the source list for `CCCCCCCC/C=C\CCCCCCCC(=O)NCCO` [Oleoylethanolamide]?
EC50 [1]: 500 nM; % Activation RA [1]: 120%; EC50 [4]: 7.9 µM

Which IC50 [4] does the source give for `CN[C@@H](C)[C@H](O)c1ccccc1` [Ephedrine hydrochloride] here?
The IC50 was 1.6 µM.
